Source: ChEMBL document CHEMBL6120950, “Deep-Learning-Driven Discovery of SN3-1, a Potent NLRP3 Inhibitor with Therapeutic Potential for Inflammatory Diseases” (J Med Chem, 2024)
Calls of active or inactive are those of the source. No cut-off for these calls is given here.

Assays:
HEK-293T = test: Cytotoxicity against human HEK293T cells assessed as effect on cell viability at 50 uM incubated for 24 hrs by CCK-8 assay; assay type: toxicity, cell-based
[1] = Glutathione reactivity in PBS buffer; assay type: physicochemical
[2] = biological target: NACHT, LRR and PYD domains-containing protein 3 (Homo sapiens, UniProt Q96P20); test: Inhibition of NLRP3 inflammasome pathway in human THP-1 cells assessed as LPS-stimulated IL-1beta release pretreated with LPS for 3 hrs followed by compound addition for 30 mins prior to MSU addition and measured after 30 mins by ELISA; assay type: cell-based
[3] = Toxicity in C57BL/6 mouse assessed as total distance travelled at 30 mg/kg, po measured up to 7 days by open field test; assay type: organism-based; details: in vivo, 168 h, time < 7 day
[4] = MRT (0 to t) in ICR mouse at 10 mg/kg, po measured upto 24 hrs by LC-MS/MS analysis; assay type: ADME, organism-based; details: in vivo
[5] = Acute toxicity in po dosed C57BL/6J mouse assessed as lethal dose at measured for 1 week; assay type: organism-based; details: in vivo, time 1 weeks
Mus musculus [6] = test: Antialzheimer activity against scopolamine-induced cognitive impairment in C57BL/6 mouse assessed as increase in number of platform crossing at 30 mg/kg, po measured upto 14 days by morris water maze test; assay type: functional, organism-based; details: time <= 14.0 day
[7] = Oral bioavailability in ICR mouse at 10 mg/kg measured upto 24 hrs by LC-MS/MS analysis; assay type: ADME, organism-based; details: in vivo
Mus musculus [8] = test: Anti-inflammatory activity in MSU-induced acute gouty arthritis ICR mouse model assessed as reduction in ankle swelling at 30 mg/kg, po administered for 7 days; assay type: functional, organism-based; details: time 7.0 day
[9] = Half life in ICR mouse at 10 mg/kg, po measured upto 24 hrs by LC-MS/MS analysis; assay type: ADME, organism-based; details: in vivo
[10] = AUC (0 to t) in ICR mouse at 10 mg/kg, po measured upto 24 hrs by LC-MS/MS analysis; assay type: ADME, organism-based; details: in vivo
[11] = Chronic toxicity in ICR mouse assessed as change in AST level at 300 mg/kg, po administered every day for 12 days; assay type: organism-based; details: in vivo, 288 h, time 12 day
[12] = Clearance in ICR mouse at 1 mg/kg, iv measured upto 24 hrs by LC-MS/MS analysis; assay type: ADME, organism-based; details: in vivo
[13] = Chronic toxicity in mouse assessed as reduction in body weight at 300 mg/kg, po administered every day for 12 days; assay type: organism-based; details: in vivo, 288 h, time 12 day
[14] = Chronic toxicity in ICR mouse assessed as change in creatinine level at 300 mg/kg, po administered every day for 12 days; assay type: organism-based; details: in vivo, 288 h, time 12 day
[15] = Acute toxicity in C57BL/6J mouse assessed as mortality at 2000 mg/kg, po measured for 1 week; assay type: organism-based; details: in vivo, 168 h, time 1 weeks
[16] = Tmax in ICR mouse at 10 mg/kg, po measured upto 24 hrs by LC-MS/MS analysis; assay type: ADME, organism-based; details: in vivo
BMDM = test: Induction ROS production in human BMDM cells by MitoSOX probe based analysis; assay type: functional, cell-based
[17] = Half life in ICR mouse at 1 mg/kg, iv measured upto 24 hrs by LC-MS/MS analysis; assay type: ADME, organism-based; details: in vivo
[18] = Cmax in ICR mouse at 10 mg/kg, po measured upto 24 hrs by LC-MS/MS analysis; assay type: ADME, organism-based; details: in vivo
[19] = Tmax in ICR mouse at 1 mg/kg, iv measured upto 24 hrs by LC-MS/MS analysis; assay type: ADME, organism-based; details: in vivo
[20] = Volume of distribution at steady state in ICR mouse at 1 mg/kg, iv measured upto 24 hrs by LC-MS/MS analysis; assay type: ADME, organism-based; details: in vivo, read-out: Vdss
[21] = Chronic toxicity in ICR mouse assessed as change in uric acid level at 300 mg/kg, po administered every day for 12 days; assay type: organism-based; details: in vivo, 288 h, time 12 day
[22] = AUC (0 to t) in ICR mouse at 1 mg/kg, iv measured upto 24 hrs by LC-MS/MS analysis; assay type: ADME, organism-based; details: in vivo
[23] = Acute toxicity in mouse assessed as mortality at 2000 mg/kg, po measured on day 1; assay type: organism-based; details: in vivo, 24 h, time 1 day
[24] = Chronic toxicity in ICR mouse assessed as change in nitrogen level at 300 mg/kg, po administered every day for 12 days; assay type: organism-based; details: in vivo, 288 h, time 12 day
[25] = MRT (0 to t) in ICR mouse at 1 mg/kg, iv measured upto 24 hrs by LC-MS/MS analysis; assay type: ADME, organism-based; details: in vivo
[26] = Chronic toxicity in ICR mouse assessed as change in ALT level at 300 mg/kg, po administered every day for 12 days; assay type: organism-based; details: in vivo, 288 h, time 12 day
[27] = Cmax in ICR mouse at 1 mg/kg, iv measured upto 24 hrs by LC-MS/MS analysis; assay type: ADME, organism-based; details: in vivo
[28] = Microsomal stability in human liver microsome assessed half life; assay type: ADME; details: liver microsomes

Sequence of NACHT, LRR and PYD domains-containing protein 3 (Q96P20 whole entry, the tested form may be a part): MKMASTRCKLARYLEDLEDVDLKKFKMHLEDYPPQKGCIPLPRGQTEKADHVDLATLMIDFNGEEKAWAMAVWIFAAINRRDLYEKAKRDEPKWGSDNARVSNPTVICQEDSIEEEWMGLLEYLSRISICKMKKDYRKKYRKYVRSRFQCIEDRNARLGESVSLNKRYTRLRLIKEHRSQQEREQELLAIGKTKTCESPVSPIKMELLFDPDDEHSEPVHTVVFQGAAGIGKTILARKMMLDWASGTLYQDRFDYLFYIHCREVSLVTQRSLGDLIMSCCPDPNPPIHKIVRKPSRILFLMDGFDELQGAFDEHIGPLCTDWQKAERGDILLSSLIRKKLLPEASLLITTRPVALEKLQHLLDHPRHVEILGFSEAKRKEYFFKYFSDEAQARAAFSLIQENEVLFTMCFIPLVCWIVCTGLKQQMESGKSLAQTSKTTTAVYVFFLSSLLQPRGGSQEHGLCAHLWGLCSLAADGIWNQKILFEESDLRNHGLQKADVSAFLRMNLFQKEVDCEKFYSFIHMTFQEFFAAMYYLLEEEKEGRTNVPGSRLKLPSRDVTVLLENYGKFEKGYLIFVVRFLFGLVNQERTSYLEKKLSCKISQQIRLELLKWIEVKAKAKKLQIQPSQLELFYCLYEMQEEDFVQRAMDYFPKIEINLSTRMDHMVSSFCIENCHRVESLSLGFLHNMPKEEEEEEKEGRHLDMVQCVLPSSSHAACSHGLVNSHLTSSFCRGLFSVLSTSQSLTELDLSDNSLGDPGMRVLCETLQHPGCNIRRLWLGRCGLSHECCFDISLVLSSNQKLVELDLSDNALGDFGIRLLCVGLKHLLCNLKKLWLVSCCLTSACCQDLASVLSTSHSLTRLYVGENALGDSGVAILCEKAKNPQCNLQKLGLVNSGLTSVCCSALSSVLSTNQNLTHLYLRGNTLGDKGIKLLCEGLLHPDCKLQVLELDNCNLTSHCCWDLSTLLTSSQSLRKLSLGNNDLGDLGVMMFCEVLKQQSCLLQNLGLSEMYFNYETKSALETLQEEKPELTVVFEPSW

CC(C)(O)c1coc(S(=O)(=O)NC(=O)Nc2c(-c3cccc(Cl)c3Cl)ccc3c2CCC3)c1
Activity (HEK-293T): Non-toxic
Drug metabolism [1]: metabolite_detected

CC(C)(O)c1coc(S(=O)(=O)NC(=O)Nc2cccc3c2CCC3)c1
IC50 [2]: > 1 µM

CC(C)(O)c1coc(S(=O)(=O)NC(=O)Nc2c3c(cc(Br)c2OC2CCCCC2)CCC3)c1
IC50 [2]: > 1 µM

COC(=O)c1csc(CNC(=O)Nc2c(-c3cccc(Cl)c3Cl)ccc3c2CCC3)c1
IC50 [2]: > 1 µM

CC(C)(O)c1csc(S(=O)(=O)NC(=O)Nc2c(-c3cccc(Cl)c3Cl)ccc3c2CCC3)c1
Activity [3]: Non-toxic
MRT last at 24 h [4]: 1.73 h
LD50 at 168 h [5]: 2000 mg/kg
Activity (Mus musculus [6]): Active
bioavailability [7]: 36.8%
Activity (Mus musculus [8]): Active
half-life [9]: 1.86 h
AUC(0-t) at 24 h [10]: 9.71 µg·h/mL
Activity [11]: Non-toxic
clearance [12]: 0.366 L/h/kg
Activity [13]: Non-toxic
Activity [14]: Non-toxic
Activity [15]: Non-toxic
Tmax [16]: 0.5 h
Activity (BMDM): Active
half-life [17]: 2.57 h
Cmax [18]: 7.12 µg/mL
Tmax [19]: 4.98 min
Vd [20]: 0.638 L/kg
Activity [21]: Non-toxic
AUC(0-t) at 24 h [22]: 2.61 µg·h/mL
Activity [23]: Toxic
Activity [24]: Non-toxic
MRT last at 24 h [25]: 1.75 h
Activity [26]: Non-toxic
Cmax [27]: 3.92 µg/mL
half-life [28]: 1.57 h

CC(C)(O)c1coc(S(=O)(=O)NC(=O)Nc2c(-c3ccc4ccccc4c3)ccc3c2CCC3)c1
Activity (HEK-293T): Non-toxic
Drug metabolism [1]: metabolite_detected

CC(C)(O)c1coc(S(=O)(=O)NC(=O)NC2CCCc3ccccc32)c1 (stereo not given)
IC50 [2]: > 1 µM

CC(C)(O)c1coc(S(=O)(=O)NC(=O)Nn2ccc3cccnc32)c1
IC50 [2]: > 1 µM

CC(C)(O)c1coc(S(=O)(=O)NC(=O)NC2c3ccccc3-c3ccccc32)c1
IC50 [2]: > 1 µM

CC(=O)c1csc(NC(=O)Nc2c(-c3cccc(Cl)c3Cl)ccc3c2CCC3)c1
IC50 [2]: > 1 µM

C=C(C)c1csc(SCC(=O)Nc2c(-c3cccc(Cl)c3Cl)ccc3c2CCC3)c1
IC50 [2]: > 1 µM

CC(C)(O)c1coc(S(=O)(=O)NC(=O)Nc2c(-c3ccc(N4CCOCC4)cc3)ccc3c2CCC3)c1
IC50 [2]: > 1 µM
